Results taken from patent publication US20240058336A1 (IMPACT BIOMEDICINES, INC., priority 2020, published 2024).
Where a name gives a salt, the structure may show the parent alone.

Assays:
[1] = Fedratinib pharmacokinetics in healthy subjects; format: in vivo, human
[2] = Tolerability of single fedratinib doses in healthy subjects; format: in vivo, human
[3] = tested on: CYP3A4, CYP2C19 and flavin-containing monooxygenases (FMOs); assay: In vitro evaluations of fedratinib metabolism; format: in vitro ADME
FLT3 kinase = target: T1, FLT3 kinase (Homo sapiens, UniProt P36888); conditions: cited from earlier work
T1 sequence (P36888 27-993): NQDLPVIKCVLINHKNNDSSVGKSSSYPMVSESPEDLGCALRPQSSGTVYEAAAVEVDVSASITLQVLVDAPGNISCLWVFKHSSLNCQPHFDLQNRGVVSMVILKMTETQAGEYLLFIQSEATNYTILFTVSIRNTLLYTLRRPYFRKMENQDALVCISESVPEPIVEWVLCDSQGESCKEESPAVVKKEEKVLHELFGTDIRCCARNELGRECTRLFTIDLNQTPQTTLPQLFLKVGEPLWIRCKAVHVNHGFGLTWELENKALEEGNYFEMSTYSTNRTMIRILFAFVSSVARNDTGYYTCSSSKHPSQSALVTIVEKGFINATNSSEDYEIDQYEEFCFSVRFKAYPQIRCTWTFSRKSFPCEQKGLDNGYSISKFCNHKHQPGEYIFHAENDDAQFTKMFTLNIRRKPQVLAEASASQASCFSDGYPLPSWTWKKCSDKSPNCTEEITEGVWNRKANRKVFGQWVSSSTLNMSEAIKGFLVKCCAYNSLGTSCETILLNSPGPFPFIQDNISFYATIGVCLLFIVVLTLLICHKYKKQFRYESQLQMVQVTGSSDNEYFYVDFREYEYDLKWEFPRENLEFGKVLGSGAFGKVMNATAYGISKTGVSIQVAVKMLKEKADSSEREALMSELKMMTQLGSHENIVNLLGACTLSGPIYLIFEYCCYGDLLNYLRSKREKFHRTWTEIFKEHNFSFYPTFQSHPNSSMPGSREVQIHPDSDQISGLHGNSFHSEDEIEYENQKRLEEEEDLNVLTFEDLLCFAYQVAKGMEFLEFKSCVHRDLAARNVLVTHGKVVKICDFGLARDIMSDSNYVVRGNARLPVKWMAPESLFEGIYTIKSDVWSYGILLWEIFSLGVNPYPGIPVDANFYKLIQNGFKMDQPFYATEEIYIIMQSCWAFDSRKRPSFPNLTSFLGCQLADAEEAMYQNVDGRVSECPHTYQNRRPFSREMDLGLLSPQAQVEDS

[4] = tested on: patient-derived cell lines expressing JAK2V617F and cells engineered to express WT JAK2 or JAK2V617F; conditions: cited from earlier work
JAK2V617F-driven MPNs = conditions: mouse models; cited from earlier work
nausea and vomiting = assay: Ondansetron prophylaxis in a previous Phase 1 fedratinib study; format: in vivo, human; conditions: prophylaxis before fedratinib
Excerpt: A subsequent oral dose(s) of ondansetron may be given, as necessary, in accordance with the United States Package Insert (USPI).

Question: What does the source list for `Cc1cnc(Nc2ccc(OCCN3CCCC3)cc2)nc1Nc1cccc(S(=O)(=O)NC(C)(C)C)c1` [fedratinib, N-tert-butyl-3-[(5-methyl-2-{[4-(2-pyrrolidin-1-ylethoxy)phenyl]amino}pyrimidin-4-yl)amino]benzenesulfonamide dihydrochloride monohydrate]?
Answer: fraction of total fedratinib AUC captured ([1]; by 168 hours postdose, healthy subjects): approximately 90%; PK linearity ([1]; clinically relevant dose range, single-dose PK predicts multiple-dose PK): linear; half-life ([1]; human, in vivo, healthy subjects, read-out: effective half-life (converted)): ~30 h; single dose tolerated [2]: up to 680 mg; metabolizing enzymes [3]: metabolized by multiple CYPs, with the predominant contribution from CYP3A4, and with lesser contributions from CYP2C19 and flavin-containing monooxygenases (FMOs); inhibition of FLT3 kinase (FLT3 kinase): inhibits; STAT phosphorylation [4]: reduced phosphorylation of STATS/STATS; apoptosis [4]: increased apoptosis; cell proliferation [4]: inhibited cell proliferation; STAT phosphorylation (JAK2V617F-driven MPNs): blocked phosphorylation of STATS/5; disease-associated symptoms (leukopenia, anemia, splenomegaly, fibrosis) (JAK2V617F-driven MPNs): improved disease-associated symptoms; survival (JAK2V617F-driven MPNs): increased survival

Question: With `Cc1nccn1CC1CCc2c(c3ccccc3n2C)C1=O` (stereo not shown) [Ondansetron] as the compound, how does the nausea and vomiting (nausea and vomiting) read?
Answer: Its nausea and vomiting is “reduce nausea and vomiting”.
